From US20260224716A1, “PTH ANALOGS FOR THE TREATMENT OF HYPOPARATHYROIDISM” (priority 2020, published 2026)

Assays:
[1] = Pharmacokinetics in rats after single subcutaneous dose, LCMS (Example 10); settings: rats
Description: Female Sprague-Dawley rats were randomly distributed among four groups with five or six rats per group. […] Dose volume was based on body weight and recorded prior to dosing.

serum phosphate = assay: Serum phosphate in parathyroidectomized rats, ten daily doses (Example 16); type: in vivo, Sprague-Dawley rats; settings: for starting serum phosphate concentration: PTx rats, before first dose
Description: (§1) Rats were randomly distributed among 5 groups and injected subcutaneously for ten consecutive days with either vehicle or SEQ ID NO; 87 (10, 25, 40 nmol/kg; n=8). Two separate vehicle treated groups of rats were studied. The first represented control rats surgically managed like the remaining rats, but their parathyroid gland was not removed (sham control). The second vehicle control group represented rats that were surgically managed in the same manner as the SEQ ID NO: 87 treated rats. Following surgery and one week prior to testing all the rats were placed on a defined diet at a specific calcium concentration.
Determination of phosphate levels was conducted with sampling at near-identical times to the serum calcium, differing only in the last days of the washout period. […] The starting phosphate level was 7.003 mg/dl, as compared to 11.317 mg/dl in the vehicle control group of the PTx rats. […] The difference between the two control groups was maintained through the course of the experiment. […] Efficacy was fully maintained through observation at Day 10, one day after the last administered dose. […] Twenty-five days after study initiation, all PTx-rats aligned as a group with increased phosphate, as compared to sham control rats.

serum calcium [2] = assay: Serum calcium in rats, repeat daily dosing 28 days (Example 14); type: in vivo, Sprague-Dawley rats
Procedure: Changes in body weight and food intake were also measured.
Body weight and food intake were measured on Day 0 (immediately prior to peptide administration), 1, 3, 7, 10, 14, 17, 21, 24, 28, 31, and 35. Serum Ca was measured at the start of the experiment and on Days 7, 14, 21, 28, 29, 30, 31, 32 and 34. Blood samples were collected via tail laceration for determination of total Ca in serum using commercially available colorimetric assays.

serum calcium [3] = assay: Serum calcium in parathyroidectomized rats, ten daily doses (Example 16); type: in vivo, Sprague-Dawley rats; settings: for starting serum calcium concentration: before first dose
Description: as §1
(§2) A 96-well plate spectrophotometer (SpectraMax M5, Molecular Devices) was employed for detection. […] Absorbance (Ab) was measured at 650 nm wavelength. Manufacturer provided linearity up to 15 mg/dL. The serum calcium was measured immediately prior to injection (time 0 hour), followed by 24, 48, 72, and 96 hours.

[4] = Cleavage half-life / conversion of PTH prodrugs in PBS pH 7.4, 37° C. by LC-MS; type: physicochemical; settings: for Percentage of prodrug: prodrug in PBS, LC-MS peak areas
Outline: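 Prodrugs incubated in PBS pH 7.4 at 37 °C, aliquots sampled over time for LC-MS (10–80% acetonitrile/0.1% TFA gradient). Prodrug and drug quantified by relative peak areas; dissociation rate constant from log prodrug concentration versus time.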

serum calcium [5] = assay: Serum calcium in parathyroidectomized rats, four daily doses (Example 15); type: in vivo, Sprague-Dawley rats; settings: for starting serum calcium concentration: before first dose
Description: as §1, with “subcutaneously for four consecutive days” for “subcutaneously for ten consecutive days”, “either vehicle (sterile 0.9% NaCl solution; n=6), or SEQ” for “either vehicle or SEQ”
as §2

serum calcium [6] = assay: Serum calcium in rats after single subcutaneous dose (Example 10); type: in vivo, Sprague-Dawley rats; settings: 30 or 60 nmol/kg SC single dose; increase within the physiological range
Procedure: A 96-well plate spectrophotometer (SpectraMax M5, Molecular Devices) was employed for detection. Serum Ca and Pi were measured on days 0, 1, 2, 4, 5 and 7. Absorbance (Ab) was measured at 650 nm for Ca and 340 nm for Pi. Manufacturer linearity is provided up to 15 mg/dl for Ca and 10 mg/dl for Pi.

serum calcium [7] = assay: Serum calcium in rats, repeat daily dosing 7 days (Example 13); type: in vivo, Sprague-Dawley rats; settings: daily SC 7 days; SEQ ID NO: 77 20 nmol/kg, SEQ ID NO: 87 20 or 40 nmol/kg; returned to initial values after washout
Procedure: Female Sprague-Dawley rats were single or double-housed and randomly assigned to four groups (n=5-6 per group) as described in Table 20, and then weighed.
After the treatment ceased, the animals were monitored on days 9 and 11 (washout period).
Body weight and food intake were measured on days 0, 1, 3, 5 and 7. Ca was measured on days 0, 1, 2, 3, 4, 7, 9 and 11. Pi was determined on the same samples, except for days 9 and 11.

[8] = PTx rats, treatment group 10 nmol/kg
[9] = PTx rats, treatment group 25 nmol/kg
[10] = PTx rats, treatment group 40 nmol/kg

SMILES: CC[C@H](C)[C@H](NC(=O)[C@H](CCC(=O)O)NC(=O)[C@H](CO)NC(=O)[C@@H](NC(=O)[C@H](CO)NC(=O)CN(C)C(=O)[C@H](N)CCCCNC(=O)CC[C@H](NC(=O)COCCOCCNC(=O)COCCOCCNC(=O)CC[C@H](NC(=O)CCCCCCCCCCCCCCCCC(=O)O)C(=O)O)C(=O)O)C(C)C)C(=O)N[C@@H](CCC(N)=O)C(=O)N[C@@H](CC(C)C)C(=O)N[C@@H](CCSC)C(=O)N[C@@H](Cc1c[nH]cn1)C(=O)N[C@@H](CC(N)=O)C(=O)N[C@@H](CC(C)C)C(=O)NCC(=O)N[C@@H](CCCCN)C(=O)N[C@@H](Cc1c[nH]cn1)C(=O)N[C@@H](CC(C)C)C(=O)N[C@@H](CC(N)=O)C(=O)N[C@@H](CO)C(=O)N[C@@H](CCSC)C(=O)N[C@@H](CCC(=O)O)C(=O)N[C@@H](CCCNC(=N)N)C(=O)N[C@H](C(=O)N[C@@H](CCC(=O)O)C(=O)N[C@@H](Cc1c[nH]c2ccccc12)C(=O)N[C@@H](CC(C)C)C(=O)N[C@@H](CCCNC(=N)N)C(=O)N[C@@H](CCCCN)C(=O)N[C@@H](CCCCN)C(=O)N[C@@H](CC(C)C)C(=O)N[C@@H](CCC(N)=O)C(=O)N[C@@H](CC(=O)O)C(=O)N[C@H](C(=O)N[C@@H](Cc1c[nH]cn1)C(=O)N[C@@H](CCCCNC(=O)CC[C@H](NC(=O)COCCOCCNC(=O)COCCOCCNC(=O)CC[C@H](NC(=O)CCCCCCCCCCCCCCCCC(=O)O)C(=O)O)C(=O)O)C(=O)O)C(C)C)C(C)C [SEQ ID NO: 87]
- time of return to baseline value, prodrug ([1]; SEQ ID NO: 87 30 nmol/kg SC): one week
- tolerability ([1]; doses where prodrug and drug could be measured by LCMS): did not adversely affect the rats
- serum phosphate levels versus sham control (serum phosphate; PTx rats, 10, 25, 40 nmol/kg daily SC, after seven days): comparable to sham control rats
- starting serum phosphate concentration (serum phosphate; treatment group 10 nmol/kg): 11.412 mg/dL
- starting serum phosphate concentration (serum phosphate; treatment group 25 nmol/kg): 10.673 mg/dL
- starting serum phosphate concentration (serum phosphate; treatment group 40 nmol/kg): 8.152 mg/dL
- starting serum phosphate, decreased level versus PTx vehicle (serum phosphate; high-dose group 40 nmol/kg): 28%
- starting serum phosphate, increase versus PTx vehicle (serum phosphate; low-dose group 10 nmol/kg): 1.0%
- starting serum phosphate, decreased level versus PTx vehicle (serum phosphate; mid-dose group 25 nmol/kg): 5.7%
- absolute increase in serum Ca over the course of the study (serum calcium [2]; 4 nmol/kg daily SC): 1.356 mg/dL
- percentage increase in serum Ca (serum calcium [2]; 4 nmol/kg daily SC): 14.7%
- absolute increase in serum Ca over the course of the study (serum calcium [2]; 8 nmol/kg daily SC): 1.452 mg/dL
- percentage increase in serum Ca (serum calcium [2]; 8 nmol/kg daily SC): 16.7%
- absolute increase in serum Ca over the course of the study (serum calcium [2]; 12 nmol/kg daily SC): 2.072 mg/dL
- percentage increase in serum Ca (serum calcium [2]; 12 nmol/kg daily SC): 23%
- general health (serum calcium [2]; 4, 8, 12 nmol/kg daily SC): All animals appeared healthy
- serum calcium levels versus sham control (serum calcium [3]; PTx rats, 10, 25, 40 nmol/kg daily SC, after two days): virtually identical to sham control rats
- serum calcium levels versus sham control (serum calcium [3]; PTx rats, mid and high-dose (25, 40 nmol/kg), four and seven days): matched or exceeded what was observed in the sham control rats
- starting serum calcium concentration (serum calcium [3]; [8]): 4.5 mg/dL
- starting serum calcium concentration (serum calcium [3]; [9]): 5.028 mg/dL
- starting serum calcium concentration (serum calcium [3]; [10]): 5.108 mg/dL
- starting serum calcium, decreased level versus PTx vehicle (serum calcium [3]; treatment group 10 nmol/kg): 3.4%
- starting serum calcium, increased level versus PTx vehicle (serum calcium [3]; treatment group 25 nmol/kg): 7.9%
- starting serum calcium, increased level versus PTx vehicle (serum calcium [3]; treatment group 40 nmol/kg): 9.6%
- half-life ([4]; PBS buffer, pH 7.4, PBS, LCMS over 192 hours, FIG. 10): 4.67 days
- Percentage of prodrug ([4]; 0 h): 100%
- Percentage of prodrug ([4]; 48 h): 74%
- Percentage of prodrug ([4]; 72 h): 62%
- Percentage of prodrug ([4]; 120 h): 46%
- Percentage of prodrug ([4]; 192 h): 31%
- serum calcium versus sham control (serum calcium [5]; PTx rats, 25 nmol/kg daily SC, 72 hours): insignificantly different from the sham control rats
- serum calcium versus sham control (serum calcium [5]; PTx rats, 40 nmol/kg daily SC, after 48 hours): slightly exceeding that of the sham control rats
- serum calcium excess over the sham control (serum calcium [5]; PTx rats, 40 nmol/kg, […] (72 hours after last dose)): more than 0.2 nmol/ml
- starting serum calcium concentration (serum calcium [5]; [8]): 1.185 nmol/µL
- starting serum calcium concentration (serum calcium [5]; [9]): 1.354 nmol/µL
- starting serum calcium concentration (serum calcium [5]; [10]): 1.251 nmol/µL
- starting serum calcium, higher level than vehicle treated PTx-rats (serum calcium [5]; treatment group 10 nmol/kg): 9.2%
- starting serum calcium, higher level than vehicle treated PTx-rats (serum calcium [5]; treatment group 25 nmol/kg): 24.8%
- starting serum calcium, higher level than vehicle treated PTx-rats (serum calcium [5]; treatment group 40 nmol/kg): 15.3%
- time of peak of serum calcium increase (serum calcium [6]): 3 days
- Serum Ca levels during the treatment period (serum calcium [7]): gradually increased
